Experimental data reported in publication PMC2991631 (Biochemical pharmacology, 2010).
Read-outs that look alike come from different tables or passages of the source.

Columns and labels:
[1] = system: hCE1 (CES1); details: hCE1 relative to hiCE; cited from earlier work
[2] = system: carboxylesterases (CE) in human liver microsomal extracts; assay: CE activity; assay type: biochemical; details: 10μM 876
[3] = system: carboxylesterases (hiCE, hCE1) in human liver microsomal extracts; assay type: biochemical; details: for CPT-11 hydrolysis + 876 / Loss in CPT-11 hydrolysis + 876 / Loss in CPT-11 hydrolysis + 876 [%]: 10μM 876

CCc1c2c(nc3ccc(OC(=O)N4CCC(N5CCCCC5)CC4)cc13)-c1cc3c(c(=O)n1C2)COC(=O)[C@]3(O)CC [CPT-11, 7-ethyl-10-[4-(1-piperidino)-1-piperidino]carbonyloxycamptothecin]
Km for CPT-11, hCE1 higher than hiCE [1]: ~ 25 fold

O=S(=O)(Nc1c(F)c(F)c(NS(=O)(=O)c2ccc(Br)cc2)c(F)c1F)c1ccc(Br)cc1 [compound 876, N,N'-(2,3,5,6-tetrafluoro-1,4-phenylene)bis(4-bromobenzenesulfonamide)]
CE activity + 876 ([2]; liver microsomal extract HG03): 3759 ± 84 nmol/mg/min
Loss in CE activity + 876 ([2]; liver microsomal extract HG03): 2816 nmol/mg/min
Loss in CE activity + 876 [%] ([2]; liver microsomal extract HG03): 42.8%
CE activity + 876 ([2]; liver microsomal extract HG74): 4341 ± 152 nmol/mg/min
Loss in CE activity + 876 ([2]; liver microsomal extract HG74): 2866 nmol/mg/min
Loss in CE activity + 876 [%] ([2]; liver microsomal extract HG74): 39.8%
CE activity + 876 ([2]; liver microsomal extract HG93): 2938 ± 87 nmol/mg/min
Loss in CE activity + 876 ([2]; liver microsomal extract HG93): 1790 nmol/mg/min
Loss in CE activity + 876 [%] ([2]; liver microsomal extract HG93): 37.9%
CE activity + 876 ([2]; liver microsomal extract HG95): 3285 ± 242 nmol/mg/min
Loss in CE activity + 876 ([2]; liver microsomal extract HG95): 1840 nmol/mg/min
Loss in CE activity + 876 [%] ([2]; liver microsomal extract HG95): 35.9%
CE activity + 876 ([2]; liver microsomal extract HG103): 2224 ± 202 nmol/mg/min
Loss in CE activity + 876 ([2]; liver microsomal extract HG103): 1482 nmol/mg/min
Loss in CE activity + 876 [%] ([2]; liver microsomal extract HG103): 40.0%
CE activity + 876 ([2]; liver microsomal extract HH13): 672 ± 47 nmol/mg/min
Loss in CE activity + 876 ([2]; liver microsomal extract HH13): 221 nmol/mg/min
Loss in CE activity + 876 [%] ([2]; liver microsomal extract HH13): 24.8%
CE activity + 876 ([2]; liver microsomal extract HH61): 3925 ± 125 nmol/mg/min
Loss in CE activity + 876 ([2]; liver microsomal extract HH61): 1953 nmol/mg/min
Loss in CE activity + 876 [%] ([2]; liver microsomal extract HH61): 33.2%
CE activity + 876 ([2]; liver microsomal extract HH74): 2235 ± 203 nmol/mg/min
Loss in CE activity + 876 ([2]; liver microsomal extract HH74): 1471 nmol/mg/min
Loss in CE activity + 876 [%] ([2]; liver microsomal extract HH74): 39.7%
CE activity + 876 ([2]; liver microsomal extract HK37): 4052 ± 120 nmol/mg/min
Loss in CE activity + 876 ([2]; liver microsomal extract HK37): 2280 nmol/mg/min
Loss in CE activity + 876 [%] ([2]; liver microsomal extract HK37): 36%
CE activity + 876 ([2]; liver microsomal extract SD003): 3434 ± 224 nmol/mg/min
Loss in CE activity + 876 ([2]; liver microsomal extract SD003): 1809 nmol/mg/min
Loss in CE activity + 876 [%] ([2]; liver microsomal extract SD003): 34.5%
CE activity + 876 ([2]; liver microsomal extract SD004): 3460 ± 234 nmol/mg/min
Loss in CE activity + 876 ([2]; liver microsomal extract SD004): 2162 nmol/mg/min
Loss in CE activity + 876 [%] ([2]; liver microsomal extract SD004): 38.5%
CE activity + 876 ([2]; liver microsomal extract SD104): 3493 ± 146 nmol/mg/min
Loss in CE activity + 876 ([2]; liver microsomal extract SD104): 1895 nmol/mg/min
Loss in CE activity + 876 [%] ([2]; liver microsomal extract SD104): 35.2%
CE activity + 876 ([2]; liver microsomal extract SD120): 2610 ± 102 nmol/mg/min
Loss in CE activity + 876 ([2]; liver microsomal extract SD120): 1885 nmol/mg/min
Loss in CE activity + 876 [%] ([2]; liver microsomal extract SD120): 41.9%
CE activity + 876 ([2]; liver microsomal extract SD123): 3874 ± 101 nmol/mg/min
Loss in CE activity + 876 ([2]; liver microsomal extract SD123): 2071 nmol/mg/min
Loss in CE activity + 876 [%] ([2]; liver microsomal extract SD123): 34.8%
CE activity + 876 ([2]; liver microsomal extract SD124): 1997 ± 189 nmol/mg/min
Loss in CE activity + 876 ([2]; liver microsomal extract SD124): 1411 nmol/mg/min
Loss in CE activity + 876 [%] ([2]; liver microsomal extract SD124): 41.4%
CE activity + 876 ([2]; liver microsomal extract SD128): 4144 ± 401 nmol/mg/min
Loss in CE activity + 876 ([2]; liver microsomal extract SD128): 2169 nmol/mg/min
Loss in CE activity + 876 [%] ([2]; liver microsomal extract SD128): 34.4%
CE activity + 876 ([2]; liver microsomal extract SD132): 5018 ± 209 nmol/mg/min
Loss in CE activity + 876 ([2]; liver microsomal extract SD132): 3176 nmol/mg/min
Loss in CE activity + 876 [%] ([2]; liver microsomal extract SD132): 38.8%
CE activity + 876 ([2]; liver microsomal extract SD134): 345 ± 28 nmol/mg/min
Loss in CE activity + 876 ([2]; liver microsomal extract SD134): 197 nmol/mg/min
Loss in CE activity + 876 [%] ([2]; liver microsomal extract SD134): 36.4%
CE activity + 876 ([2]; liver microsomal extract SD136): 1719 ± 243 nmol/mg/min
Loss in CE activity + 876 ([2]; liver microsomal extract SD136): 1477 nmol/mg/min
Loss in CE activity + 876 [%] ([2]; liver microsomal extract SD136): 46.2%
CPT-11 hydrolysis + 876 ([3]; liver microsomal extract HG03): 29.6 ± 0.64 pmol/mg/h
Loss in CPT-11 hydrolysis + 876 ([3]; liver microsomal extract HG03): 14.7 pmol/mg/h
Loss in CPT-11 hydrolysis + 876 [%] ([3]; liver microsomal extract HG03): 33.1%
CPT-11 hydrolysis + 876 ([3]; liver microsomal extract HG74): 25.8 ± 1.1 pmol/mg/h
Loss in CPT-11 hydrolysis + 876 ([3]; liver microsomal extract HG74): 14.1 pmol/mg/h
Loss in CPT-11 hydrolysis + 876 [%] ([3]; liver microsomal extract HG74): 35.3%
CPT-11 hydrolysis + 876 ([3]; liver microsomal extract HG93): 18.2 ± 0.42 pmol/mg/h
Loss in CPT-11 hydrolysis + 876 ([3]; liver microsomal extract HG93): 12.4 pmol/mg/h
Loss in CPT-11 hydrolysis + 876 [%] ([3]; liver microsomal extract HG93): 40.5%
CPT-11 hydrolysis + 876 ([3]; liver microsomal extract HG95): 16.2 ± 0.21 pmol/mg/h
Loss in CPT-11 hydrolysis + 876 ([3]; liver microsomal extract HG95): 8.30 pmol/mg/h
Loss in CPT-11 hydrolysis + 876 [%] ([3]; liver microsomal extract HG95): 33.9%
CPT-11 hydrolysis + 876 ([3]; liver microsomal extract HG103): 19.4 ± 0.14 pmol/mg/h
Loss in CPT-11 hydrolysis + 876 ([3]; liver microsomal extract HG103): 13.2 pmol/mg/h
Loss in CPT-11 hydrolysis + 876 [%] ([3]; liver microsomal extract HG103): 40.1%
CPT-11 hydrolysis + 876 ([3]; liver microsomal extract HH13): 18.5 ± 0.14 pmol/mg/h
Loss in CPT-11 hydrolysis + 876 ([3]; liver microsomal extract HH13): 15.4 pmol/mg/h
Loss in CPT-11 hydrolysis + 876 [%] ([3]; liver microsomal extract HH13): 45.4%
CPT-11 hydrolysis + 876 ([3]; liver microsomal extract HH61): 13.4 ± 0.07 pmol/mg/h
Loss in CPT-11 hydrolysis + 876 ([3]; liver microsomal extract HH61): 8.80 pmol/mg/h
Loss in CPT-11 hydrolysis + 876 [%] ([3]; liver microsomal extract HH61): 39.7%
CPT-11 hydrolysis + 876 ([3]; liver microsomal extract HH74): 7.14 ± 0.23 pmol/mg/h
Loss in CPT-11 hydrolysis + 876 ([3]; liver microsomal extract HH74): 8.22 pmol/mg/h
Loss in CPT-11 hydrolysis + 876 [%] ([3]; liver microsomal extract HH74): 53.5%
CPT-11 hydrolysis + 876 ([3]; liver microsomal extract HK37): 17.0 ± 0.57 pmol/mg/h
Loss in CPT-11 hydrolysis + 876 ([3]; liver microsomal extract HK37): 18.4 pmol/mg/h
Loss in CPT-11 hydrolysis + 876 [%] ([3]; liver microsomal extract HK37): 51.9%
CPT-11 hydrolysis + 876 ([3]; liver microsomal extract SD003): 34.2 ± 0.92 pmol/mg/h
Loss in CPT-11 hydrolysis + 876 ([3]; liver microsomal extract SD003): 20.5 pmol/mg/h
Loss in CPT-11 hydrolysis + 876 [%] ([3]; liver microsomal extract SD003): 37.5%
CPT-11 hydrolysis + 876 ([3]; liver microsomal extract SD004): 19.3 ± 1.0 pmol/mg/h
Loss in CPT-11 hydrolysis + 876 ([3]; liver microsomal extract SD004): 14.6 pmol/mg/h
Loss in CPT-11 hydrolysis + 876 [%] ([3]; liver microsomal extract SD004): 43.0%
CPT-11 hydrolysis + 876 ([3]; liver microsomal extract SD104): 13.7 ± 0.07 pmol/mg/h
Loss in CPT-11 hydrolysis + 876 ([3]; liver microsomal extract SD104): 5.80 pmol/mg/h
Loss in CPT-11 hydrolysis + 876 [%] ([3]; liver microsomal extract SD104): 29.8%
CPT-11 hydrolysis + 876 ([3]; liver microsomal extract SD120): 18.5 ± 0.14 pmol/mg/h
CPT-11 hydrolysis + 876 ([3]; liver microsomal extract SD123): 17 ± 0.14 pmol/mg/h
Loss in CPT-11 hydrolysis + 876 ([3]; liver microsomal extract SD123): 13.0 pmol/mg/h
Loss in CPT-11 hydrolysis + 876 [%] ([3]; liver microsomal extract SD123): 43.2%
CPT-11 hydrolysis + 876 ([3]; liver microsomal extract SD124): 15.8 ± 0.28 pmol/mg/h
Loss in CPT-11 hydrolysis + 876 ([3]; liver microsomal extract SD124): 11.3 pmol/mg/h
Loss in CPT-11 hydrolysis + 876 [%] ([3]; liver microsomal extract SD124): 41.7%
CPT-11 hydrolysis + 876 ([3]; liver microsomal extract SD128): 16.5 ± 0.35 pmol/mg/h
Loss in CPT-11 hydrolysis + 876 ([3]; liver microsomal extract SD128): 13.1 pmol/mg/h
Loss in CPT-11 hydrolysis + 876 [%] ([3]; liver microsomal extract SD128): 44.3%
CPT-11 hydrolysis + 876 ([3]; liver microsomal extract SD132): 14.1 ± 0.50 pmol/mg/h
Loss in CPT-11 hydrolysis + 876 ([3]; liver microsomal extract SD132): 12.6 pmol/mg/h
Loss in CPT-11 hydrolysis + 876 [%] ([3]; liver microsomal extract SD132): 47.2%
CPT-11 hydrolysis + 876 ([3]; liver microsomal extract SD134): 8.49 ± 0.18 pmol/mg/h
Loss in CPT-11 hydrolysis + 876 ([3]; liver microsomal extract SD134): 8.96 pmol/mg/h
Loss in CPT-11 hydrolysis + 876 [%] ([3]; liver microsomal extract SD134): 51.3%
CPT-11 hydrolysis + 876 ([3]; liver microsomal extract SD136): 33.6 ± 0.64 pmol/mg/h
Loss in CPT-11 hydrolysis + 876 ([3]; liver microsomal extract SD136): 21.8 pmol/mg/h
Loss in CPT-11 hydrolysis + 876 [%] ([3]; liver microsomal extract SD136): 39.3%
effect on CPT-11 activation in liver microsomal samples ([3]; selective hiCE inhibitor 876): unable to reduce the levels of CPT-11 activation in liver microsomal samples to zero
